Patent US7655395B2, “Isolation and use of ryanodine receptors” (E.I. du Pont de Nemours and Company, priority 2002, dated 2010)

Columns and labels:
[1] = molecular target: native cockroach ryanodine receptors (roach femoral muscle membranes) (Periplaneta americana, UniProt A0ABQ8T696); assay: Radioligand displacement ([3H]-GN analog Cpd 1) on roach femoral muscle membranes; assay type: binding
Protocol: Binding to Roach Femoral Muscle Membranes:
Assays were carried out in triplicate.

[2] = system: recombinant Heliothis virescens ryanodine receptor (expressed in Sf9 cells); assay: Calcium release assay, Sf9 cells transiently or stably expressing Heliothis virescens ryanodine receptor (Fura-2); assay type: cell-based; conditions: for calcium response: Sf9 stably expressing H. virescens ryanodine receptor, FIG. 5
Protocol: SF9 cells were grown at 27 degrees C. in a Corning 125 ml polycarbonate Erlenmeyer flask to a density of 3.1 million cells per ml in SF900-II serum free media (Gibco catalog no. 10902-088, Invitrogen™, Carlsbad, Calif.). One million cells were transferred to one well of a Corning 6-well, flat bottom cell culture dish (Corning Inc., Acton, Mass., catalog no. 3516). SF900-II media was used to bring the final volume in the dish to 2 ml and the cells were incubated at 27 degrees C. for 21 h. Following the incubation the media was aspirated from the dish and replaced with 1 ml of SF900-II media pre-warmed to 27 degrees C.
In the case of the vectors containing the Cre recognition elements, the transfection solution was mixed in a 1.5 ml microfuge tube by combining 5 ug of pHE7 plasmid, 5 ug of pMLS104 Cre plasmid and 0.5 ug of lacZ reporter plasmid, 15 ug of cellfectin reagent (Invitrogen cat. #10362-010) and SF900-II serum free media (Gibco catalog #10902-088, Invitrogen™, Carlsbad, Calif.) in a total volume of 500 ul. The solution was incubated for 1 hour at room temperature just prior to the transfection.
The transfection was accomplished by adding the transfection solution drop-wise to the dish and incubating 4 h at room temperature with gentle rocking. After the 4 h incubation the media was replaced with 2 ml of SF900-II media pre-warmed to 27 degrees C. and the cells were incubated 3 days at 27 degrees C.
Several drops of a suspension of recombinant Spodoptera frugiperda cell line, Sf9, transiently expressing insect ryanodine receptors were placed on a poly-L-lysine-coated coverslip and allowed to attach. Cells were then rinsed in physiological saline having the following composition (mM): NaCl 130; KCl 5.4; MgCl2 1.2; CaCl2 1.0; NaHCO3 4.2; NaH2P04 7.3; Glucose 10; Sucrose 63; MES 20; pH 6.3. Cells were then bathed in physiological saline containing the calcium sensitive fluoroprobe, Fura-2 AM (2 μM), and Pluronic F127 (0.002%) for 30 min. Cells were rinsed in standard physiological saline for at least 15 min prior to testing. […]
For studies involving the stable recombinant Spodoptera frugiperda cell line, Sf9, (other cell lines could also be used such as Sf21, S2, etc) expressing an insect ryanodine receptor from Drosophila melanogaster, or Heliothis virescens (alternatively receptors from other species such as Myzus persicae, Peregrinus maidis, Aphis gossypii, etc) were grown in T75 (or other appropriate sized) flasks in supplemented Grace's insect medium. […] After a 30 minute equilibration period the cell plate was tested using a Molecular Devices' FlexStation™ system with dual wavelength excitation (340 and 380 nm) and fluorescence emission measured at 510 nm. […]

Chain of native cockroach ryanodine receptors (roach femoral muscle membranes) (A0ABQ8T696 entry or part of it): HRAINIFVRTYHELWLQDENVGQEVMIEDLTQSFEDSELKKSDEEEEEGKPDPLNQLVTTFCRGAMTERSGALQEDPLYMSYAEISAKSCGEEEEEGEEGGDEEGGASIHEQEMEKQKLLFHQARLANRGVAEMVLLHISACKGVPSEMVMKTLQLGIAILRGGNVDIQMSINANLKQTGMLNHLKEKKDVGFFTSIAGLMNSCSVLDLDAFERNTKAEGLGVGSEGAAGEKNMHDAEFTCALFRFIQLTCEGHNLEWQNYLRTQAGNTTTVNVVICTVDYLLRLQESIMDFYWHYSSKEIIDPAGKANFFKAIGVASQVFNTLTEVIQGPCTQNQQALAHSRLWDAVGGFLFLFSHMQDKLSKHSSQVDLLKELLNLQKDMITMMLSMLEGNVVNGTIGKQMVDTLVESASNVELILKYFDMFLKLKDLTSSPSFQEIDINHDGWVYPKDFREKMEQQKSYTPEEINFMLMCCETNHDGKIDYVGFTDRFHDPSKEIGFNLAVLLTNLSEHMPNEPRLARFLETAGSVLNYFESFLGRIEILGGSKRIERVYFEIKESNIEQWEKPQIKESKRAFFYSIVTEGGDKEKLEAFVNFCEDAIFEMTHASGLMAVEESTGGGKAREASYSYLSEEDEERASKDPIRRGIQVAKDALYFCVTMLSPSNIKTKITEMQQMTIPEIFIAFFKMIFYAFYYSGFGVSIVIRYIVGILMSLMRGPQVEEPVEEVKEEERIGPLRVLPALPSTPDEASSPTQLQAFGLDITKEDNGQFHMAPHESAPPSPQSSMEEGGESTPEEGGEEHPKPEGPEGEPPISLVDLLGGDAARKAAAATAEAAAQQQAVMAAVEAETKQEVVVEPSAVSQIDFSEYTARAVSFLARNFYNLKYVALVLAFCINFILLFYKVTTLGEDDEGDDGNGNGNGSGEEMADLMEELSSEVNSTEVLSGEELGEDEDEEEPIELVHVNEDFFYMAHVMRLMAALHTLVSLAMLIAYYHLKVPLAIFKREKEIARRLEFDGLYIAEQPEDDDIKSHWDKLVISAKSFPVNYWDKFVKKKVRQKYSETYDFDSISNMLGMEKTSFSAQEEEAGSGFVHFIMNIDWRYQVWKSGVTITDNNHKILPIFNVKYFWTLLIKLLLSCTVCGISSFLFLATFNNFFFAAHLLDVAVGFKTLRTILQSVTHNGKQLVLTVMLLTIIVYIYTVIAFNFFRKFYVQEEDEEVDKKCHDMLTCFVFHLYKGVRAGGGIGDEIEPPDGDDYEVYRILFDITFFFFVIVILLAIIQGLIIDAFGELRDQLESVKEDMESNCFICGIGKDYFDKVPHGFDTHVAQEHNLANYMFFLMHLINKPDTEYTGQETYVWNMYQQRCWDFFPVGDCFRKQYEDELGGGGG

Compound: Cn1c(=O)c2c(ncn2C)n(C)c1=O [Caffeine, reference compound]
- Radioligand Displacement (P. americana) ([1]; Table 6, result in words): Inactive
- calcium response ([2]; caffeine 10 mM): calcium responses elicited
- cytosolic [Ca2+] response ([2]; caffeine 10 mM, Sf9 transiently expressing H. virescens ryanodine receptor, 72 hr post-transfection, FIG. 4): increase in cytosolic [Ca^2+]

Compound: CNC(=O)c1cc(Cl)cc(C)c1NC(=O)c1cc(Br)nn1-c1ncccc1Cl [Cpd 14]
- IC50 ([1]; displacement of [3H]-Cpd 1, roach muscle membranes, 60 min at 32° C., read-out: Displacement IC50 (nM) P. americana): < 300 nM
- calcium response ([2]; Compound 14 1 μM): calcium responses elicited
